One test addresses T1, KRas^G13D (Homo sapiens, UniProt P01116, G13D).
T1 construct: Biotinylated KRas (corresponding to amino acids 1-169, produced at Accelegan Inc.); biotin (biotinylated); purchased Accelegan Inc
The experiment in a line: KRas binding assay (TR-FRET tracer displacement), KRas G13D. Conditions: single point, 10 nM compound, TR-FRET.

Test [1] deals with KRas-mediated phosphorylation of ERK in H727 cells. The experiment in a line: Inhibition of KRas-mediated phosphorylation of ERK (Cisbio HTRF pERK), H727 cells. Type of test: cell-based. Conditions: Homo sapiens, NCI-H727, H727 cells; HTRF pERK. A digest of the protocol:
(§1)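 Each compound was tested at 10 concentrations, threefold apart with 10 uM the highest, for 3 hrs on 6,000 seeded cells; final DMSO was 0.8% and Trametinib (0.2 uM) served as Min control. Lysed cells were analysed for pERK by HTRF.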
A general note: In TR-FRET formats the signal depends on donor and acceptor labels being close together.

Test [2] concerns KRas-mediated phosphorylation of ERK in A549 cells. The experiment in a line: Inhibition of KRas-mediated phosphorylation of ERK (Cisbio HTRF pERK), A549 cells. The test is classed as cell-based. Particulars: Homo sapiens, HTRF pERK. The method in brief:
as §1

The next test addresses T2, KRas^G12A (Homo sapiens, UniProt P01116, G12A).
T2 construct: Biotinylated KRas (corresponding to amino acids 1-169, produced at Accelegan Inc.); biotin (biotinylated); purchased Accelegan Inc
The experiment in a line: KRas binding assay (TR-FRET tracer displacement), KRas G12A. Conditions: single point, 10 nM compound, TR-FRET.

Test [3] deals with KRas-mediated phosphorylation of ERK in MKN1 cells. The experiment in a line: Inhibition of KRas-mediated phosphorylation of ERK (Cisbio HTRF pERK), MKN1 cells. The test is classed as cell-based. Conditions: Homo sapiens, MKN-1. The method in brief:
(§2)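 Day 1 seeding: 6,000 cells per well, RPMI/10% FBS, left overnight at 37° C. with 5% CO2. Plates then stood covered for 4 h at room temperature prior to HTRF detection of pERK.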

For another test, the target named is T3, KRas^WT (Homo sapiens, UniProt P01116).
T3 construct: Biotinylated KRas (corresponding to amino acids 1-169, produced at Accelegan Inc.); biotin (biotinylated); purchased Accelegan Inc
The experiment in a line: KRas binding assay (TR-FRET tracer displacement), KRas WT. Conditions: single point, 10 nM compound, TR-FRET.

Another test has as its target T4, KRas^G12C (Homo sapiens, UniProt P01116, G12C).
T4 construct: Biotinylated KRas (corresponding to amino acids 1-169, produced at Accelegan Inc.); biotin (biotinylated); purchased Accelegan Inc
The experiment in a line: KRas binding assay (TR-FRET tracer displacement), KRas G12C. Particulars: single point, 10 nM compound, TR-FRET.

The test system of test [4] is KRas-mediated phosphorylation of ERK in PSN1 cells. The experiment in a line: Inhibition of KRas-mediated phosphorylation of ERK (Cisbio HTRF pERK), PSN1 cells. Particulars: Homo sapiens. The test is classed as cell-based. The method in brief:
as §2

The target of the next test is T5, KRas^G12D (Homo sapiens, UniProt P01116, G12D).
T5 construct: Biotinylated KRas (corresponding to amino acids 1-169, produced at Accelegan Inc.); biotin (biotinylated); purchased Accelegan Inc
The experiment in a line: KRas binding assay (TR-FRET tracer displacement), KRas G12D.

The subject of test [5] is KRas-mediated phosphorylation of ERK in H460 cells. The experiment in a line: Inhibition of KRas-mediated phosphorylation of ERK (Cisbio HTRF pERK), H460 cells. Type of test: cell-based. Conditions: Homo sapiens, NCI-H460, HTRF pERK. The method in brief: as §1
A further test deals with T6, KRas^G12R (Homo sapiens, UniProt P01116, G12R).
T6 construct: Biotinylated KRas (corresponding to amino acids 1-169, produced at Accelegan Inc.); biotin (biotinylated); purchased Accelegan Inc
The experiment in a line: KRas binding assay (TR-FRET tracer displacement), KRas G12R.

For test [6], the system named is KRas-mediated phosphorylation of ERK in HCT116 cells. The experiment in a line: Inhibition of KRas-mediated phosphorylation of ERK (Cisbio HTRF pERK), HCT116 cells. The test is classed as cell-based. Particulars: Homo sapiens, HCT-116, HTRF pERK. The method in brief:
as §1

Test [7] concerns KRas-mediated phosphorylation of ERK in AsPC-1 cells. The experiment in a line: Inhibition of KRas-mediated phosphorylation of ERK (Cisbio HTRF pERK), AsPC-1 cells. Type of test: cell-based. Particulars: Homo sapiens, ASPC1, AsPC-1 cells; HTRF pERK. A digest of the protocol:
as §1

Another test addresses T7, KRas^Q61H (Homo sapiens, UniProt P01116, Q61H).
T7 construct: Biotinylated KRas (corresponding to amino acids 1-169, produced at Accelegan Inc.); biotin (biotinylated); purchased Accelegan Inc
The experiment in a line: KRas binding assay (TR-FRET tracer displacement), KRas Q61H. Conditions: single point, 10 nM compound, TR-FRET.

The target of another test is T8, KRas^G12S (Homo sapiens, UniProt P01116, G12S).
T8 construct: Biotinylated KRas (corresponding to amino acids 1-169, produced at Accelegan Inc.); biotin (biotinylated); purchased Accelegan Inc
The experiment in a line: KRas binding assay (TR-FRET tracer displacement), KRas G12S. Particulars: single point, 10 nM compound, TR-FRET.

For a further test, the target named is T9, KRas^G12V (Homo sapiens, UniProt P01116, G12V).
T9 construct: Biotinylated KRas (corresponding to amino acids 1-169, produced at Accelegan Inc.); biotin (biotinylated); purchased Accelegan Inc
The experiment in a line: KRas binding assay (TR-FRET tracer displacement), KRas G12V.

We go through 6 compounds from US20260015350A1, “AZAQUINAZOLINE PAN-KRAS INHIBITORS” (Mirati Therapeutics, Inc., priority 2022, published 2026).

As usually defined, the inhibition is the relative decrease from the control value, in per cent. A lower inhibition goes with little suppression. A word on the IC50: it is the concentration that gives 50% inhibition. Low values mean inhibition by little substance, high ones a need for much substance.

T6 sequence (P01116 1-169 isoform P01116-2 G12R): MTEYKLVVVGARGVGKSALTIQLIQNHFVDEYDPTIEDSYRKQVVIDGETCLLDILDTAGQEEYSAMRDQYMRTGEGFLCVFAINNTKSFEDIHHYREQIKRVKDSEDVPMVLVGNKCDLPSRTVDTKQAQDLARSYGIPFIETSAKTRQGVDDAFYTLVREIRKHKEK
T3 sequence (P01116 1-169 isoform P01116-2): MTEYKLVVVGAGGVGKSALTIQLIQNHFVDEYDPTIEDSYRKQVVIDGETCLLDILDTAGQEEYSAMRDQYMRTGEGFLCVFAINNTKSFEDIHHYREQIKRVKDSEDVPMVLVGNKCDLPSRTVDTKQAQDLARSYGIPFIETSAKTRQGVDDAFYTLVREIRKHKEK
T1 sequence (P01116 1-169 isoform P01116-2 G13D): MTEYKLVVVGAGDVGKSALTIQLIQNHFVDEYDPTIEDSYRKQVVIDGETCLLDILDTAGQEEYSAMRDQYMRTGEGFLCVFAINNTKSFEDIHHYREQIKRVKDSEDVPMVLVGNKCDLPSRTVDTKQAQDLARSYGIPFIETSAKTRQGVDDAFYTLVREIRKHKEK
T9 sequence (P01116 1-169 isoform P01116-2 G12V): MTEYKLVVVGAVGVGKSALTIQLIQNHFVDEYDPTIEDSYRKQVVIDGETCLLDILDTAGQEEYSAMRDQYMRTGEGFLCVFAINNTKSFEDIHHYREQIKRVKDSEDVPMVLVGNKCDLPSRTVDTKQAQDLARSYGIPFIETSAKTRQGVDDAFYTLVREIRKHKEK
T8 sequence (P01116 1-169 isoform P01116-2 G12S): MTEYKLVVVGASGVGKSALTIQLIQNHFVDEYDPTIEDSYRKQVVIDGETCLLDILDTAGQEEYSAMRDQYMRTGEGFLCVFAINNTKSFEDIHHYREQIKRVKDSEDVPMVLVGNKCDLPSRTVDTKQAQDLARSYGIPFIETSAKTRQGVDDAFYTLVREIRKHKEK
T5 sequence (P01116 1-169 isoform P01116-2 G12D): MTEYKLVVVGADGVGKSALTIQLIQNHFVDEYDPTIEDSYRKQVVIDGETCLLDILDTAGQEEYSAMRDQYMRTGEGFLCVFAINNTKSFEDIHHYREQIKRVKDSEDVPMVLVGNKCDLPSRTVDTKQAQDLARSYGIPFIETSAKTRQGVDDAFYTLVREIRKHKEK
T4 sequence (P01116 1-169 isoform P01116-2 G12C): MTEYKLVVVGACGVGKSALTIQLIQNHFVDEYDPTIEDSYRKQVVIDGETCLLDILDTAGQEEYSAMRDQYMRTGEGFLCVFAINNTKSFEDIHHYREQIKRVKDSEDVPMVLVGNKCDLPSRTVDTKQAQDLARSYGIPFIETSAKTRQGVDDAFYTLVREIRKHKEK
T2 sequence (P01116 1-169 isoform P01116-2 G12A): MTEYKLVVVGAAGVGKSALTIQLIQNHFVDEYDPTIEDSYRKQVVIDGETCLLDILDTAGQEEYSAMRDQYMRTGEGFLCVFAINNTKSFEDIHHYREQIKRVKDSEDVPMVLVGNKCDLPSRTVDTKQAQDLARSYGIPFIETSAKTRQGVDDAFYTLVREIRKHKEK
T7 sequence (P01116 1-169 isoform P01116-2 Q61H): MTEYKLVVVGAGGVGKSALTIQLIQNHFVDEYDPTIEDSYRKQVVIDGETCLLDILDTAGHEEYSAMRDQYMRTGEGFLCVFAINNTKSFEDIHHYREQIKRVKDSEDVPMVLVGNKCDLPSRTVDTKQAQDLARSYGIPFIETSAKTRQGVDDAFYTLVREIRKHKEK

Regarding `CCc1c(F)ccc2cc(O)cc(-c3ncc4c(N5CCC[C@@](C)(O)C5)nc(OC[C@@]56CCCN5[C@H](COC(=O)NC)CC6)nc4c3F)c12` [Example 706, ((3S,7aS)-7a-(((7-(8-ethyl-7-fluoro-3-hydroxynaphthalen-1-yl)-8-fluoro-4-((R)-3-hydroxy-3-methylpiperidin-1-yl)pyrido[4,3-d]pyrimidin-2-yl)oxy)methyl)hexahydro-1H-pyrrolizin-3-yl)methyl methylcarbamate], the inhibition at 0.01 µM at KRas^G13D came to 89%; on KRas^G12A, 82%; on KRas^WT it was 84%; on KRas^G12C, 89%; at KRas^Q61H it was 88%; on KRas^G12S, 85%. The IC50 is 83 nM in test [1]; 112 nM in test [2]; 9 nM in test [3]; 2780 nM in [4]; 3 nM on KRas^G12D; 39 nM in test [5]. Further, the IC50 at KRas^G12R was 2 nM; in [6] it was 85 nM; in test [7], 45 nM; on KRas^G12V, below 2 nM.

With `CCNC(=O)OC[C@@H]1CC[C@]2(COc3nc(N4CCC[C@@](C)(O)C4)c4cnc(-c5cc(O)cc6ccc(F)c(CC)c56)c(F)c4n3)CCCN12` [Example 717, ((3S,7aS)-7a-(((7-(8-ethyl-7-fluoro-3-hydroxynaphthalen-1-yl)-8-fluoro-4-((R)-3-hydroxy-3-methylpiperidin-1-yl)pyrido[4,3-d]pyrimidin-2-yl)oxy)methyl)hexahydro-1H-pyrrolizin-3-yl)methyl ethylcarbamate], the inhibition at 0.01 µM at KRas^G13D is 94%; on KRas^G12A, 90%; on KRas^WT, 92%; on KRas^G12C it was 93%; at KRas^Q61H, 92%; on KRas^G12S, 92%. Besides, the IC50 was 44 nM in test [1]; 47 nM in [2]; 3 nM in [3]; 1820 nM in test [4]; below 2 nM on KRas^G12D; 30 nM in test [5]. The IC50 is below 2 nM at KRas^G12R, 84 nM in test [6], 22 nM in [7] and below 2 nM on KRas^G12V.

Take `CCc1c(F)ccc2cc(O)cc(-c3ncc4c(N5CCC[C@@](C)(O)C5)nc(OC[C@@]56CCCN5[C@H](COC(=O)NC(C)C)CC6)nc4c3F)c12` [Example 718, ((3S,7aS)-7a-(((7-(8-ethyl-7-fluoro-3-hydroxynaphthalen-1-yl)-8-fluoro-4-((R)-3-hydroxy-3-methylpiperidin-1-yl)pyrido[4,3-d]pyrimidin-2-yl)oxy)methyl)hexahydro-1H-pyrrolizin-3-yl)methyl isopropylcarbamate]: the inhibition at 0.01 µM is 95% at KRas^G13D; 94% at KRas^G12A; 94% on KRas^WT; 96% at KRas^G12C; 96% on KRas^Q61H; 94% on KRas^G12S. In addition, the IC50 was 43 nM in test [1]; 37 nM in test [2]; 2 nM in [3]; 1100 nM in test [4]; below 2 nM on KRas^G12D; 29 nM in [5]. Further, the IC50 is below 2 nM on KRas^G12R, 58 nM in test [6], 17 nM in [7] and below 2 nM at KRas^G12V.

`CCc1c(F)ccc2cc(O)cc(-c3ncc4c(N5CCC[C@@](C)(O)C5)nc(OC[C@@]56CCCN5[C@H](COC(=O)N5CCCC5)CC6)nc4c3F)c12` [Example 719, ((3S,7aS)-7a-(((7-(8-ethyl-7-fluoro-3-hydroxynaphthalen-1-yl)-8-fluoro-4-((R)-3-hydroxy-3-methylpiperidin-1-yl)pyrido[4,3-d]pyrimidin-2-yl)oxy)methyl)hexahydro-1H-pyrrolizin-3-yl)methyl pyrrolidine-1-carboxylate]: the inhibition at 0.01 µM on KRas^G13D was found to be 98%; on KRas^G12A, 95%; on KRas^WT, 96%; on KRas^G12C, 97%; at KRas^Q61H it was 98%; on KRas^G12S, 97%. The IC50 was 23 nM in [1]; 7 nM in [2]; 1 nM in test [3]; 518 nM in test [4]; below 2 nM on KRas^G12D; 8 nM in test [5]. In addition, the IC50 at KRas^G12R was below 2 nM; in test [6], 23 nM; in test [7] it was 7 nM; on KRas^G12V, below 2 nM.

Turning to `CCc1c(F)ccc2cc(O)cc(-c3ncc4c(N5CCC[C@@](C)(O)C5)nc(OC[C@@]56CCCN5[C@H](COC(=O)N5CCCCC5)CC6)nc4c3F)c12` [Example 721, ((3S,7aS)-7a-(((7-(8-ethyl-7-fluoro-3-hydroxynaphthalen-1-yl)-8-fluoro-4-((R)-3-hydroxy-3-methylpiperidin-1-yl)pyrido[4,3-d]pyrimidin-2-yl)oxy)methyl)hexahydro-1H-pyrrolizin-3-yl)methyl piperidine-1-carboxylate], the inhibition at 0.01 µM on KRas^G13D is 93%; on KRas^G12A, 90%; at KRas^WT, 89%; at KRas^G12C it was 92%; at KRas^Q61H, 92%; at KRas^G12S, 90%. Further, the IC50 in test [1] was 28 nM; in test [2], 19 nM; in [3], 2 nM; in test [4] it was 956 nM; on KRas^G12D, below 2 nM; in [5], 12 nM. Moreover, the IC50 on KRas^G12R is below 2 nM; in test [6], 48 nM; in [7], 15 nM; on KRas^G12V, below 2 nM.

Turning to `CCc1cccc2cc3[nH]ncc3c(-c3ncc4c(N5C[C@@H]6C[C@H](C5)[C@H](O)C6)nc(OC[C@@]56CCCN5C[C@H](F)C6)nc4c3F)c12` [Example 767, (1R,5R,6R)-3-(7-(5-ethyl-1H-benzo[f]indazol-4-yl)-8-fluoro-2-(((2R,7aS)-2-fluorohexahydro-1H-pyrrolizin-7a-yl)methoxy)pyrido[4,3-d]pyrimidin-4-yl)-3-azabicyclo[3.2.1]octan-6-ol], the inhibition at 0.01 µM at KRas^G13D turned out to be 55%; on KRas^G12A, 54%; on KRas^WT it was 48%; on KRas^G12C it was 58%; at KRas^Q61H it was 48%; at KRas^G12S, 66%. Besides, the IC50 in test [1] is 87 nM; in test [2] it was 76 nM; in test [3] it was 32 nM; in [4] it was above 10000 nM; on KRas^G12D, 17 nM; in test [5], 64 nM. Also, the IC50 worked out at 3 nM at KRas^G12R, 216 nM in test [6], 193 nM in test [7] and 5 nM at KRas^G12V.
